Reference: publication PMC6009937, “Comparing hydrazine-derived reactive groups as inhibitors of quinone-dependent amine oxidases” (Journal of Enzyme Inhibition and Medicinal Chemistry, 2017)
Values joined by “and” are separate entries in the source; they are usually repeats but may differ in a detail not shown here. Equal values may be shown once. Read-outs that look alike come from different tables or passages of the source.

How the values were obtained:
[1] = system: rat lysyl oxidase; design: method as in PMID 19524603; details: cited from earlier work
[2] = system: LOX; design: method as in PMID 2571459; details: inhibition time not specified; read-out: IC50 LOX in vitro; cited from earlier work
[3] = stated in the text without reference; cited from earlier work
[4] = molecular target: T1, Lysyl oxidase (LOX) (Bos taurus, UniProt P33072); assay: LOX activity assay (Amplex UltraRed/HRP fluorescence) after preincubation of enzyme with inhibitor; type: biochemical, bovine
T1 construct: LOX was isolated from bovine aorta; from tissue; host or cells: bovine aorta
T1 sequence (P33072 170-418): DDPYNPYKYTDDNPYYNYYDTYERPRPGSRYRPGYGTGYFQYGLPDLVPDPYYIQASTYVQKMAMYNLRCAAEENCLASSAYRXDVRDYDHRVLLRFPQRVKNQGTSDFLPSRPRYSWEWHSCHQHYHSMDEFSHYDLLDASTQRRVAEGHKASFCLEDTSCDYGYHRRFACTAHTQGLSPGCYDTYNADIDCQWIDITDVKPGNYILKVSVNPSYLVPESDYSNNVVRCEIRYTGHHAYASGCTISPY
Description: LOX was isolated from bovine aorta at 4 °C using slight modifications of previously published procedures. All steps were carried out at in 16 mM phosphate, pH 7.8 (buffer B). After blending the aorta in buffer B containing 400 mM NaCl and 1 mM EDTA to remove soluble contaminants, the enzyme was extracted with buffer B containing 4 M urea and 1 mM EDTA. The crude enzyme extract was filtered, diluted with an equal volume of buffer B to obtain a urea concentration of 2 M, and loaded onto a DEAE column. After washing with buffer B containing 400 mM NaCl, the enzyme was eluted with buffer B containing 400 mM NaCl and 6 M urea. The urea concentration was reduced to 4 M by adding buffer B, and the solution was added to a slurry of ceramic hydroxyapatite in buffer B containing 4 M urea. After stirring, the supernatant was removed by filtration and dialyzed overnight against buffer B. The solution was added to a slurry of ceramic hydroxyapatite in buffer B, washed with small portions of 1 M phosphate and then buffer B, and then eluted with buffer B containing 6 M urea and 500 mM NaCl. After concentration to about 20 mL, the protein was applied to a Sephacryl S-200 gel filtration column preequilibrated with buffer B containing 50 mM NaCl, 1 mM EDTA, and 6 M urea and eluted with the same buffer. Active fractions were concentrated to 1 mL. Total protein concentration for 6 M urea solutions[33] was determined by its absorption at 280 nm using a molar extinction coefficient of 8.39 × 10^4 M^−1 cm ^−1.
(§1) The activity assay is adopted from the method described by Palamakumbura et al.[35]. Enzyme and inhibitor were incubated at 37 °C for the desired inhibition time, diluted into the assay mixture, and analyzed by fluorescence (Agilent Technologies Cary Eclipse Fluorescence Spectrometer, Cary Eclipse Software, 37 °C, λex = 568 and λem = 581 nm). The assay was carried out in boric acid buffer (50 mM, pH 8.2) with 1.2 M urea for LOX or in phosphate buffer (0.1 M, pH = 7.0) for LSDAO. The final reagent concentrations in the assay mixture were 10 mM cadaverine, 10 μM Amplex UltraRed (Life Technologies, Carlsbad, CA), and 1 U/mL horse radish peroxidase (Amresco, Solon, OH).
(§2) The enzyme activity, which is proportional to the rate of increase in fluorescence, was measured for each experiment. Residual activity was calculated by dividing each rate by a maximum rate determined in the absence of inhibitor such that [residual activity] = ([rate with inhibitor] – [baseline rate])/([maximum rate] – [baseline rate]). […] The residual activities from replicate experiments were averaged. For each inhibitor concentration, log([average residual activity]) was plotted against inhibition time. Linear lines of best fit forced through the origin were calculated for each data set using Graphpad Prism 5.0b (La Jolla, CA). For each inhibitor, the slopes of these lines (min^−1) were plotted as –1/slope against 1/[inhibitor concentration] to produce a Kitz–Wilson plot.
(§3) To quantify the selectivity of each inhibitor, we defined a numerical “selectivity factor” as the inhibitor's IC50 value for LOX divided by its IC50 value for LSDAO (Figure 3(C)).

[5] = system: LOX; details: literature data reprocessed by Kitz-Wilson analysis, cited from earlier work
[6] = molecular target: T2, lentil seedling diamine oxidase (LSDAO) (Lens culinaris, UniProt P49252); assay: LSDAO activity assay (Amplex UltraRed/HRP fluorescence) after preincubation of enzyme with inhibitor; type: biochemical
T2 construct: Eight-day-old lentil seedlings (Lens esculenta) were blended and extracted; from tissue; host or cells: eight-day-old lentil seedlings (Lens esculenta)
T2 sequence (P49252 19-667): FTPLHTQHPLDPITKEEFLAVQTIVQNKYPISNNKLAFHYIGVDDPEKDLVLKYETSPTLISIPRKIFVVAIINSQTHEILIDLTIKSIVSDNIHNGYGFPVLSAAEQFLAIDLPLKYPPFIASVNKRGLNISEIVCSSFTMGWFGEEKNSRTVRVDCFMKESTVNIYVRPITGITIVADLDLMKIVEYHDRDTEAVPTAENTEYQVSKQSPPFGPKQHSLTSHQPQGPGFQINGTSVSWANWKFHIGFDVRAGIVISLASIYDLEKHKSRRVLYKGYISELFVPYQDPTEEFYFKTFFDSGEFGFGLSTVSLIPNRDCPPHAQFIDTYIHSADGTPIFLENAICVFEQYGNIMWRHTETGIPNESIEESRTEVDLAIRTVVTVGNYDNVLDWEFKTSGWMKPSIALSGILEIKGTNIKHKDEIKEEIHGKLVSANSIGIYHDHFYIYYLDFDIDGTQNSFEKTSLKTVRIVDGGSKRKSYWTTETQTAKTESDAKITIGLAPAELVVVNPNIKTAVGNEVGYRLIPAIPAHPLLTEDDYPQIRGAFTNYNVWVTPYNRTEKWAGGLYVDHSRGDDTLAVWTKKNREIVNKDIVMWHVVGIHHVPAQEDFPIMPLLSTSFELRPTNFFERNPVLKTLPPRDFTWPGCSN
Description: The LSDAO extraction process was carried out at 4 °C according to the method of Floris et al.[30] with slight modifications. Eight-day-old lentil seedlings (Lens esculenta) were blended and extracted with phosphate buffer (5 mM, pH 6.0, buffer A). Ammonium sulfate (230 g/L, 40% saturation) was used to precipitate contaminants, and then additional ammonium sulfate (125 g/L, 60% saturation) was used to precipitate the LSDAO. The crude precipitate was redissolved, dialyzed against buffer A, applied to a DEAE column, and eluted with buffer A. Active fractions were adjusted to pH 6.5, applied to a CM resin column, and eluted with 5 mM phosphate buffer, pH 6.5. Active fractions were concentrated and the buffer was changed to 10 mM phosphate, pH 7.0 before the protein was applied to a Sephacryl S-300 column and eluted with the same buffer. The concentration of the LSDAO dimer was determined from its absorption at 278 nm in 0.1 M phosphate buffer[31] using a molar extinction coefficient of 2.45 × 10^5 M^−1 cm^−1.
as §1, §2, §3
From the slopes and y-intercepts of these lines, the kinetic parameters KI (the reversible binding constant) and k2 (the rate constant for irreversible reaction) (Figure 5(A)) can be calculated.

[7] = system: LOX; design: method as in PMID 6131892; details: cited from earlier work
[8] = 10 min, read-out: Average Percent Activity Remaining, LSDAO
[9] = Kitz-Wilson plot, pH 8.0 and 37 °C

In the case of `NNC(N)=O` [semicarbazide], the “Inhibition of lysyl oxidase in vivo compared to BAPN” value [1] is given as “nearly as effective as BAPN” and the IC50 [2] is given as 30 µM.
For `NNc1ccccc1` [compound 1, phenylhydrazine, reference compound], the “pKa of conjugate acid” value [3] is listed as 5, the IC50 [4] is listed as 6 µM and the “Selectivity factor (LOX IC50 value divided by LSDAO IC50 value)” value ([4]; 10-min preincubation, LOX vs LSDAO) is listed as 600. The “LOX k2 (range)” value [5] was 0.32 (0.16 to >10) min^-1 and 0.32 min^-1, the KI (inactivation) ([5]; read-out: LOX KI^-1 (range)) was 13 µM and the IC50 [6] was 0.01 µM. For the same compound, the remaining activity at 0.005 µM [6, 8] was 80%, the remaining activity at 0.0075 µM [6, 8] was 62% and the remaining activity at 0.01 µM [6, 8] was 50%. It also gave a remaining activity at 0.015 µM [6, 8] of 13%, a remaining activity at 0.03 µM [6, 8] of 0% and a remaining activity at 0.1 µM [6, 8] of 0%. It also gave a remaining activity at 0.5 µM [6, 8] of 0%.
In the case of `N#CCCN` [compound 2, β-aminopropionitrile], the “Inhibition of LOX at 10 μM” value ([7]; 10 μM, 2-h incubation) is listed as “full inhibition”, the IC50 ([7]; 2-h incubation) is listed as 0.2 µM and the KI (inactivation) [7, 9] is listed as 6 µM. For the same compound, the “k2 LOX” value [7, 9] was 0.16 min⁻¹.
